From ChEMBL document CHEMBL1759971, “Substituted phenyl triazoles as selective inhibitors of 11β-Hydroxysteroid Dehydrogenase Type 1” (Bioorg Med Chem Lett, 2011)
pEC50, pIC50: −log10 of the molar value.

Tests used:
Mus musculus [1] = test: Inhibition of 11beta-HSD1 in ICR mouse assessed as conversion of [3H]cortisone to [3H]cortisol at 10 mg/kg, po after 16 hrs by scintillation counting; format: functional
[2] = molecular target: T1, 11-beta-hydroxysteroid dehydrogenase type 2 (Mus musculus, UniProt P51661); test: Inhibition of mouse 11beta-HSD2
T1 sequence (P51661 whole entry): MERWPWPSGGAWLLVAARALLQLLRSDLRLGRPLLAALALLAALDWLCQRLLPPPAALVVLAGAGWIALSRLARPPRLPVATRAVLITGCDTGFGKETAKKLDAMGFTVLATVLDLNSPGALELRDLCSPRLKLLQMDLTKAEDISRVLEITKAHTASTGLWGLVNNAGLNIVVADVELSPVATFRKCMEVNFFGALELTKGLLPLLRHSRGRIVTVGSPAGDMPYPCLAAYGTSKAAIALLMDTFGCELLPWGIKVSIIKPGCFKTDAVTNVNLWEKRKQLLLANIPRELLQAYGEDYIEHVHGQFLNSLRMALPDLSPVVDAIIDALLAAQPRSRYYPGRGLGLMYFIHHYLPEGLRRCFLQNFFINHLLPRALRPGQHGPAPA

[3] = molecular target: T2, Nuclear receptor subfamily 1 group I member 2 (Homo sapiens, UniProt O75469); test: Agonist activity at PXR; format: functional
T2 sequence (O75469 whole entry): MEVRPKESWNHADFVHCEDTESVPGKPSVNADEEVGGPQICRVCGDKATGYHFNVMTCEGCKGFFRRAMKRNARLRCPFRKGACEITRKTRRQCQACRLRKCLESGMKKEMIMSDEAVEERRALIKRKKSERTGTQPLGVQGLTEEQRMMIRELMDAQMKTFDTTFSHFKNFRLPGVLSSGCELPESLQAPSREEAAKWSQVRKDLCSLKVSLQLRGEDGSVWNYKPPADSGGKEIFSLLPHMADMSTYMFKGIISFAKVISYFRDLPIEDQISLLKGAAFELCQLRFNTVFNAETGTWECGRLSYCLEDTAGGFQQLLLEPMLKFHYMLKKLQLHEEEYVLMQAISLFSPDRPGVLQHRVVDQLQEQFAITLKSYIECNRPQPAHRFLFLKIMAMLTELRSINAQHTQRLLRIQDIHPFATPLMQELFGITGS

[4] = molecular target: 11-beta-hydroxysteroid dehydrogenase 1 (Mus musculus, UniProt P50172); test: Inhibition of mouse 11beta-HSD1 expressed in CHO-K1 cells assessed as conversion of [3H]cortisone to [3H]cortisol by scintillation counting; format: cell-based
Chain of 11-beta-hydroxysteroid dehydrogenase 1 (Mus musculus, UniProt P50172) (P50172 whole entry): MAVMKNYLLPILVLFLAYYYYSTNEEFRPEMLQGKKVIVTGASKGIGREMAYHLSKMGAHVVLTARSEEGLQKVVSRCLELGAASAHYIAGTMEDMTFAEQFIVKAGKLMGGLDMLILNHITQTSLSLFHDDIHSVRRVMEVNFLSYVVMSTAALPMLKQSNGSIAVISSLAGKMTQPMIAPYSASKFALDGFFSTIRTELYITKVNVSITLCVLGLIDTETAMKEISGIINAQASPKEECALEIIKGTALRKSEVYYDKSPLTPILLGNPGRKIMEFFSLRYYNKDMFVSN

[5] = molecular target: T2, Nuclear receptor subfamily 1 group I member 2; test: Agonist activity at PXR at 10 uM; format: functional
[6] = molecular target: T3, 11-beta-hydroxysteroid dehydrogenase type 2 (Homo sapiens, UniProt P80365); test: Inhibition of human 11beta-HSD2
T3 sequence (P80365 whole entry): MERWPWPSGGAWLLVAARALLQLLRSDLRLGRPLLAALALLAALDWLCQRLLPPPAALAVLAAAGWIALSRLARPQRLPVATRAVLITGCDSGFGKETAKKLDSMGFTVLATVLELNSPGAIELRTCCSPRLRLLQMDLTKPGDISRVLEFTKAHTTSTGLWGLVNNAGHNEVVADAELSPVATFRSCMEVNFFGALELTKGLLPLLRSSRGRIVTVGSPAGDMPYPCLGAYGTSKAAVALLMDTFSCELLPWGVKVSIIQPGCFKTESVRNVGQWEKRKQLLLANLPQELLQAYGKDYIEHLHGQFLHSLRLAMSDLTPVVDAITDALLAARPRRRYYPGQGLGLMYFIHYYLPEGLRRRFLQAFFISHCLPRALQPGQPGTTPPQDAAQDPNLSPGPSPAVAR

[7] = molecular target: 11-beta-hydroxysteroid dehydrogenase 1 (Homo sapiens, UniProt P28845); test: Inhibition of human 11beta-HSD1 expressed in CHO-K1 cells assessed as conversion of [3H]cortisone to [3H]cortisol by scintillation counting; format: cell-based
Chain of 11-beta-hydroxysteroid dehydrogenase 1 (Homo sapiens, UniProt P28845) (P28845 whole entry): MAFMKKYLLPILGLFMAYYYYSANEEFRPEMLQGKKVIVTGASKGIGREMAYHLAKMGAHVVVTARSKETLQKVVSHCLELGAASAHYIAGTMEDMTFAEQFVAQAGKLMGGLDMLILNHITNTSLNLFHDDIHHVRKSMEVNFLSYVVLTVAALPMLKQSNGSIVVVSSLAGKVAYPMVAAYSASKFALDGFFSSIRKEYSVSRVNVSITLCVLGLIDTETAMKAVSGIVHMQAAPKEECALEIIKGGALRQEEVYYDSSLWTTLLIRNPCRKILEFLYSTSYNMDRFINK

Mus musculus [8] = test: Inhibition of 11beta-HSD1 in ICR mouse assessed as conversion of [3H]cortisone to [3H]cortisol at 10 mg/kg, po after 4 hrs by scintillation counting; format: functional

Compound | inhibition in vivo at 10 mg/kg (Mus musculus [1]) [%] | pIC50 [2] | pEC50 [3] | pIC50 [4] | Activity [5] [%] | pIC50 [6] | pIC50 [7] | inhibition in vivo at 10 mg/kg (Mus musculus [8]) [%]
COc1ncc(-c2ccc(-c3nnc(C4(c5ccc(Cl)cc5)CCC4)n3C)cc2)c(OC)n1 | 10 | < 5.40 | < 4.52 | 8.70 | 35 | < 5.40 | 7.85 | 59
Cn1c(-c2ccc(C(=O)O)cc2)nnc1C1(c2ccc(Cl)cc2)CCC1 | -8 | < 5.40 | < 4.52 | 7.06 | -1 | < 5.40 | 7.12 | 10
Cn1c(-c2ccc(-c3cccnc3)cc2O)nnc1C1(c2ccc(Cl)cc2)CCC1 | 10 | < 5.40 | < 4.52 | 9.00 | 45 | < 5.40 | 7.42 | 59
Cn1c(-c2ccc(-c3cccnc3)cc2F)nnc1C1(c2ccc(Cl)cc2)CCC1 | 15 | < 5.40 | < 4.52 | 8.80 | 43 | < 5.40 | 8.74 | 86
Cn1c(-c2ccc(C(=O)NC3CC3)cc2)nnc1C1(c2ccc(Cl)cc2)CCC1 |  | < 5.40 | < 4.52 | 7.96 | 14 | < 5.40 | 6.52 | 
Cn1c(-c2ccc(N)cc2)nnc1C1(c2ccc(Cl)cc2)CCC1 | 12 |  | < 4.52 | 7.82 | 22 | 5.51 |  | 77
CC(=O)Nc1ccc(-c2nnc(C3(c4ccc(Cl)cc4)CCC3)n2C)c(Cl)c1 | 27 | < 5.40 | < 4.52 | > 9.00 | 34 | < 5.40 | > 9.00 | 79
Cn1c(-c2ccc(NC(=O)c3cccs3)cc2)nnc1C1(c2ccc(Cl)cc2)CCC1 | 2 | < 5.40 | 5.06 | 9.00 | 55 | < 5.40 | 8.06 | 63
Cn1c(-c2ccc(C(=O)N3CCC3)cc2)nnc1C1(c2ccc(Cl)cc2)CCC1 |  | < 5.40 | < 4.52 | 7.21 | 10 | < 5.40 | 6.60 | 
Cn1c(-c2ccc(-c3ccsc3)cc2)nnc1C1(c2ccc(Cl)cc2)CCC1 | 33 |  | 5.52 | > 9.00 | 78 | 5.89 |  | 81
Cn1c(-c2ccc(NC(=O)c3cnccn3)cc2)nnc1C1(c2ccc(Cl)cc2)CCC1 | 5 | < 5.40 | < 4.52 | 7.96 | -2.5 | < 5.40 | 7.16 | 67
Cn1c(-c2ccc(-c3cnoc3)cc2)nnc1C1(c2ccc(Cl)cc2)CCC1 |  | < 5.40 | 4.64 | 8.39 | 29 | < 5.40 | 8.96 | 
Cn1c(-c2ccc(-c3cc(=O)[nH]cn3)cc2)nnc1C1(c2ccc(Cl)cc2)CCC1 | 14 | < 5.40 | < 4.52 | 8.55 | 15 | < 5.40 | 8.06 | 26
Cn1c(-c2ccc(-c3ccc(N)nn3)cc2)nnc1C1(c2ccc(Cl)cc2)CCC1 |  | < 5.40 | < 4.52 | 8.96 | 12 | < 5.40 | 8.32 | 
